Where a SMILES comes first, the peptide text is derived from it. Bridges are numbered along the chain shown (N, C = ends). [ ]: non-standard residue; d: D form. The star is where a group is joined. hPhe(3-Cl-4-CF3) = N[C@@H](CCc1ccc(C(F)(F)F)c(Cl)c1)C(=O)O; NPrPhe(4-CF3) = CCCN[C@@H](Cc1ccc(C(F)(F)F)cc1)C(=O)O; NEtPhe(4-Me) = CCN[C@@H](Cc1ccc(C)cc1)C(=O)O; NMeGly(cPent) = CN[C@H](C(=O)O)C1CCCC1; Pro(4,4-F2) = O=C(O)[C@@H]1CC(F)(F)CN1; Hyp = O=C(O)[C@@H]1C[C@@H](O)CN1; NMeD = CN[C@@H](CC(=O)O)C(=O)O; NMeL = CN[C@@H](CC(C)C)C(=O)O; NMeAbu = CC[C@H](NC)C(=O)O; Morpholide = C1CN(*)CCO1; NMeA = CN[C@@H](C)C(=O)O; Ac5c = NC1(C(=O)O)CCCC1; Aze = O=C(O)[C@@H]1CCN1; NEtG = CCNCC(=O)O; Sar = CNCC(=O)O
How the values were obtained:
[1] = tested on: human lung cancer strain NCI-H441; format: cell-based
How it was run: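 Step one: dispense the test compound in serial DMSO dilutions. Step three: add the reagent and measure […].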

[2] = target: HRAS wild-type protein (Homo sapiens, UniProt P01112); assay: Binding to HRAS by surface plasmon resonance (SPR), KD and KD ratio to KRAS
Chain of HRAS wild-type protein (P01112 whole entry): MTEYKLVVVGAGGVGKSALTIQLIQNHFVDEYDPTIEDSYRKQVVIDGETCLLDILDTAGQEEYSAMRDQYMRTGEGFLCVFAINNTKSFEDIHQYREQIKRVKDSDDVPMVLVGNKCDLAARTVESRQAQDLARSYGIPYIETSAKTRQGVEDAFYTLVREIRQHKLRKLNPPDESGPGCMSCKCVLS
How it was run: (§1)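 Captured GDP-RAS (~100–300 RU) was exposed to increasing compound concentrations, 75 s per step, in running buffer with 10 µM GDP, 10 mM MgCl2 and 4% DMSO at pH 7.4.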

[3] = target: GDP-bound NRAS wild-type protein (Homo sapiens, UniProt P01111); assay: Binding to NRAS by surface plasmon resonance (SPR), KD and KD ratio to KRAS
Chain of GDP-bound NRAS wild-type protein (P01111 whole entry): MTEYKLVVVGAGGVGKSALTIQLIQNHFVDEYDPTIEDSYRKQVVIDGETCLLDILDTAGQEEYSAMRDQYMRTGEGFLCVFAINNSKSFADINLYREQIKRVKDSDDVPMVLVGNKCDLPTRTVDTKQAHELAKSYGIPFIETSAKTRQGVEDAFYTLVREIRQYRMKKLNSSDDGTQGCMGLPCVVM
How it was run: as §1

[4] = ratio of KD for HRAS wild-type protein to KD for KRAS
[5] = ratio of KD for GDP-bound NRAS wild-type protein to KD for KRAS
[6] = ratio of the KD value with respect to HRAS wild-type protein to the KD value with respect to KRAS
[7] = ratio of the KD value with respect to GDP-bound NRAS wild-type protein to the KD value with respect to KRAS

CCO[C@@H]1C[C@H]2C(=O)NC3(CC(C)(C)C3)C(=O)N(C)[C@@H](C3CCCC3)C(=O)N(C)[C@H](C(=O)N(C)C)CC(=O)N(C)[C@@H](CC(F)(F)F)C(=O)N[C@@H]([C@@H](C)CC)C(=O)N(C)CC(=O)N(C)[C@H]3C/C=C\CCN(C3=O)[C@@H](Cc3ccc(C(F)(F)F)cc3)C(=O)N(C)CC(=O)N[C@@H](CCc3ccc(C(F)(F)F)c(Cl)c3)C(=O)N2C1 [PP2833]
IC50 [1]: 3.8 nM | HRAS /KRAS [2, 4]: A (a compound having 10 or more and less than 20 is denoted as A) | NRAS /KRAS [3, 5]: A (a compound having 10 or more and less than 20 is denoted as A)

CC[C@@H]1C[C@H]2C(=O)NC3(CCCC3)C(=O)N(C)[C@@H](C3CCCC3)C(=O)N(C)[C@H](C(=O)N(C)CC)CC(=O)N(C)[C@@H](C)C(=O)N[C@@H]([C@@H](C)CC)C(=O)N(C)CC(=O)N(C)[C@H]3C/C=C\CCN(C3=O)[C@@H](Cc3ccc(C(F)(F)F)cc3)C(=O)N(C)CC(=O)N[C@@H](CCc3cc(F)c(C(F)(F)F)c(F)c3)C(=O)N2C1 [PP2271]
IC50 [1]: 60.6 nM | HRAS /KRAS [2, 6]: A (a compound having 10 or more and less than 20 is denoted as A) | NRAS /KRAS [3, 7]: A (a compound having 10 or more and less than 20 is denoted as A)

CCCN1C(=O)CN(C)C(=O)CN(C)C(=O)[C@H]([C@@H](C)CC)NC(=O)[C@H](CC)N(C)C(=O)C[C@@H](C(=O)N2CCOCC2)N(C)C(=O)[C@H](C2CCCC2)N(C)C(=O)C2(CCCC2)NC(=O)[C@@H]2CC(F)(F)CN2C(=O)[C@H](CCc2ccc(C(F)(F)F)c(Cl)c2)NC(=O)CN(C)C(=O)[C@@H]1Cc1ccc(C(F)(F)F)cc1 [PP0202] ([NMeAbu]I[Sar][Sar][NPrPhe(4-CF3)][Sar][hPhe(3-Cl-4-CF3)][Pro(4,4-F2)][Ac5c][NMeGly(cPent)][NMeD]-Morpholide; lactam N-11)
IC50 [1]: 3.9 nM | HRAS /KRAS [2, 4]: C (A compound having a KD ratio of 0.1 or more and less than 3 is denoted as C) | NRAS /KRAS [3, 5]: B (a compound having 3 or more and less than 10 is denoted as B)

CC[C@H](C)[C@@H]1NC(=O)[C@H](CC(C)C)N(C)C(=O)C[C@@H](C(=O)N2CCOCC2)N(C)C(=O)[C@H](C2CCCC2)N(C)C(=O)C2(CCCC2)NC(=O)[C@@H]2CCCN2C(=O)[C@H](CCc2cc(F)c(C(F)(F)F)c(F)c2)NC(=O)CN(C)C(=O)[C@H](Cc2ccc(C(F)(F)F)cc2)N2CCCC[C@@H](C2=O)N(C)C(=O)CN(CC)C1=O [PP0545]
IC50 [1]: 14 nM | HRAS /KRAS [2, 6]: B (a compound having 3 or more and less than 10 is denoted as B) | NRAS /KRAS [3, 7]: B (a compound having 3 or more and less than 10 is denoted as B)

CC[C@H](C)[C@@H]1NC(=O)[C@H](CC(C)C)N(C)C(=O)C[C@@H](C(=O)N2CCOCC2)N(C)C(=O)[C@H](C2CCCC2)N(C)C(=O)C2(CCCC2)NC(=O)[C@@H]2CCCN2C(=O)[C@H](CCc2ccc(C(F)(F)F)c(Cl)c2)NC(=O)CN(C)C(=O)[C@H](Cc2ccc(C)cc2)N(CC)C(=O)CN(CC)C(=O)CN(C)C1=O [PP0027] ([NMeL]I[Sar][NEtG][NEtPhe(4-Me)][Sar][hPhe(3-Cl-4-CF3)]P[Ac5c][NMeGly(cPent)][NMeD]-Morpholide; lactam N-11)
IC50 [1]: 17.1 nM | HRAS /KRAS [2, 4]: C (A compound having a KD ratio of 0.1 or more and less than 3 is denoted as C) | NRAS /KRAS [3, 5]: C (A compound having a KD ratio of 0.1 or more and less than 3 is denoted as C)

CCO[C@@H]1C[C@H]2C(=O)NC3(CC(C)(C)C3)C(=O)N(C)[C@@H](C3CCCC3)C(=O)N(C)[C@H](C(=O)N(C)CC)CC(=O)N(C)[C@@H](CC)C(=O)N[C@@H]([C@@H](C)CC)C(=O)N(C)CC(=O)N(C)[C@H]3C/C=C\CCN(C3=O)[C@@H](Cc3ccc(C(F)(F)F)cc3)C(=O)N(C)CC(=O)N[C@@H](CCc3ccc(Cl)c(Cl)c3)C(=O)N2C1 [PP2822]
IC50 [1]: 14.1 nM | HRAS /KRAS [2, 4]: A (a compound having 10 or more and less than 20 is denoted as A) | NRAS /KRAS [3, 5]: A (a compound having 10 or more and less than 20 is denoted as A)

CC[C@H](C)[C@@H]1NC(=O)[C@H](CC(C)C)N(C)C(=O)C[C@@H](C(=O)N2CCOCC2)N(C)C(=O)[C@H](C2CCCC2)N(C)C(=O)C2(CCCC2)NC(=O)[C@@H]2CCCN2C(=O)[C@H](CCc2ccc(C(F)(F)F)c(Cl)c2)NC(=O)CN(CC)C(=O)[C@H](Cc2ccc(C)cc2)N(CC)C(=O)[C@@H]2CCN2C(=O)[C@H](C)N(C)C1=O [PP0006] ([NMeL]I[NMeA][Aze][NEtPhe(4-Me)][NEtG][hPhe(3-Cl-4-CF3)]P[Ac5c][NMeGly(cPent)][NMeD]-Morpholide; lactam N-11)
IC50 [1]: 20.6 nM | HRAS /KRAS [2, 4]: C (A compound having a KD ratio of 0.1 or more and less than 3 is denoted as C) | NRAS /KRAS [3, 5]: C (A compound having a KD ratio of 0.1 or more and less than 3 is denoted as C)

CCO[C@@H]1C[C@H]2C(=O)NC3(CC(C)(C)C3)C(=O)N(C)[C@@H](C3CCCC3)C(=O)N(C)[C@H](C(=O)N(C)C)CC(=O)N(C)[C@@H](CC(F)(F)F)C(=O)N[C@@H]([C@@H](C)CC)C(=O)N(C)CC(=O)N(C)[C@H]3C/C=C\CCN(C3=O)[C@@H](Cc3ccc(C(F)(F)F)cc3)C(=O)N(C)CC(=O)N[C@@H](CCc3cc(F)c(C(F)(F)F)c(F)c3)C(=O)N2C1 [PP1644]
IC50 [1]: 2.7 nM | HRAS /KRAS ([2]; ratio of KD value for HRAS wild-type protein to KD value for KRAS (SPR)): A (a compound having 10 or more and less than 20 is denoted as A) | NRAS /KRAS ([3]; ratio of KD value for GDP-bound NRAS wild-type protein to KD value for KRAS (SPR)): A (a compound having 10 or more and less than 20 is denoted as A)

CCCN1C(=O)[C@@H]2CCN2C(=O)CN(C)C(=O)[C@H]([C@@H](C)CC)NC(=O)[C@H](CC(C)C)N(C)C(=O)C[C@@H](C(=O)N(C)C)N(C)C(=O)[C@H](C2CCCC2)N(C)C(=O)C2(CCCC2)NC(=O)[C@@H]2CC(F)(F)CN2C(=O)[C@H](CCc2ccc(C(F)(F)F)c(Cl)c2)NC(=O)CN(C)C(=O)[C@@H]1Cc1ccc(C(F)(F)F)cc1 [PP0442] ([NMeL]I[Sar][Aze][NPrPhe(4-CF3)][Sar][hPhe(3-Cl-4-CF3)][Pro(4,4-F2)][Ac5c][NMeGly(cPent)][NMeD]-NMe2; lactam N-11)
IC50 [1]: 0.8 nM | HRAS /KRAS [2, 6]: C (A compound having a KD ratio of 0.1 or more and less than 3 is denoted as C) | NRAS /KRAS [3, 7]: C (A compound having a KD ratio of 0.1 or more and less than 3 is denoted as C)

CCO[C@@H]1C[C@H]2C(=O)NC3(CCCC3)C(=O)N(C)[C@@H](C3CCCC3)C(=O)N(C)[C@H](C(=O)N(C)C)CC(=O)N(C)[C@@H](CC(C)C)C(=O)N[C@@H]([C@@H](C)CC)C(=O)N(C)CC(=O)N(C)[C@H]3C/C=C\CCN(C3=O)[C@@H](Cc3ccc(C(F)(F)F)cc3)C(=O)N(C)CC(=O)N[C@@H](CCc3ccc(C(F)(F)F)c(Cl)c3)C(=O)N2C1 [PP2838]
IC50 [1]: 7.9 nM | HRAS /KRAS [2, 4]: A (a compound having 10 or more and less than 20 is denoted as A) | NRAS /KRAS [3, 5]: AA (a compound having 20 or more is denoted as AA)

CCCN1C(=O)CN(C)C(=O)CN(C)C(=O)[C@H]([C@@H](C)CC)NC(=O)[C@H](CC(C)C)N(C)C(=O)C[C@@H](C(=O)N(C)C)NC(=O)[C@H](C2CCCC2)N(C)C(=O)C2(CCCC2)NC(=O)[C@@H]2C[C@@H](OCC)CN2C(=O)[C@H](CCc2ccc(C(F)(F)F)c(Cl)c2)NC(=O)CN(C)C(=O)[C@@H]1Cc1ccc(C(F)(F)F)cc1 [PP0359] ([NMeL]I[Sar][Sar][NPrPhe(4-CF3)][Sar][hPhe(3-Cl-4-CF3)][Hyp](Et)[Ac5c][NMeGly(cPent)]D-NMe2; lactam N-11)
IC50 [1]: 33.1 nM | HRAS /KRAS [2, 4]: B (a compound having 3 or more and less than 10 is denoted as B) | NRAS /KRAS [3, 5]: B (a compound having 3 or more and less than 10 is denoted as B)
